Like-named read-outs stand apart in the source and are kept apart here.
What was measured:
[1] = system: advanced pancreatic cancer; conditions: Phase II, combination chemotherapy with Gemcitabine; cited from earlier work
[2] = system: advanced pancreatic cancer; conditions: Phase III, combination with Gemcitabine; cited from earlier work
[3] = system: phosphorylated RPS6 (ribosomal protein S6); conditions: TSC1-deficient cells; cited from earlier work
[4] = system: HCT116 human colon carcinoma xenograft; experiment: HCT116 xenograft model in nude mice (hypoxic tumor); type: in vivo; conditions: for efficacy at slowing tumor growth in HCT116 (high hypoxia) versus 786O (low hypoxia) tumors: comparison of HCT116 and 786O xenografts in nude mice
Protocol: Human tumor cell lines HCT116 (ATCC #CRL-247; Schroy P C, et al. Cancer 76: 201-209, 1995) and 786-O (ATCC #CRL-1932; Williams R D, et al. In Vitro 12: 623-627, 1976), were obtained from the American Type Culture Collection (Manassus, Va., USA) were cultured using routine methods until a sufficient number of cells were obtained for implantation. Studies were conducted on animals between 7 and 12 weeks of age at implantation. To implant HCT116 tumor cells into nude mice, the cells were trypsinized, washed in PBS and resuspended at a concentration of 75×10^6 cells/ml in McCoy's modified medium with 50% of BD Matrigel® Basement Membrane Matrix (BD Biosciences®, Bedford, Mass., USA). To implant 786-O tumor cells into nude mice, the cells were trypsinized as above, washed in PBS and resuspended at a concentration of 75×10^6 cells/ml in RPMI 1640 medium with 50% of BD Matrigel® Basement Membrane Matrix. Using a 27 gauge needle and 1 cc syringe, 0.1 ml of the cell suspension was injected into the corpus adiposum of nude mice. […] The location permits palpation and measurement of the tumors using external calipers. Tumor volumes (V) were calculated by caliper measurement of the width (W), length (L) and thickness (T) of tumors using the following formula: V=0.5236×(L×W×T).

[5] = system: pancreatic cancer; conditions: PTK787 orally daily with gemcitabine, cited from earlier work
[6] = system: metastatic colorectal cancer (mCRC); conditions: cited from earlier work
[7] = system: 786-O human renal carcinoma xenograft; experiment: 786-O xenograft model in nude mice (low hypoxia tumor); type: in vivo
Protocol: Human tumor cell lines HCT116 (ATCC #CRL-247; Schroy P C, et al. Cancer 76: 201-209, 1995) and 786-O (ATCC #CRL-1932; Williams R D, et al. In Vitro 12: 623-627, 1976), were obtained from the American Type Culture Collection (Manassus, Va., USA) were cultured using routine methods until a sufficient number of cells were obtained for implantation. Studies were conducted on animals between 7 and 12 weeks of age at implantation. To implant HCT116 tumor cells into nude mice, the cells were trypsinized, washed in PBS and resuspended at a concentration of 75×10^6 cells/ml in McCoy's modified medium with 50% of BD Matrigel® Basement Membrane Matrix (BD Biosciences®, Bedford, Mass., USA). To implant 786-O tumor cells into nude mice, the cells were trypsinized as above, washed in PBS and resuspended at a concentration of 75×10^6 cells/ml in RPMI 1640 medium with 50% of BD Matrigel® Basement Membrane Matrix. Using a 27 gauge needle and 1 cc syringe, 0.1 ml of the cell suspension was injected into the corpus adiposum of nude mice. The corpus adiposum is a fat body located in the ventral abdominal vicera in the right quadrant of the abdomen at the juncture of the os coxae (pelvic bone) and the os femoris (femur). The location permits palpation and measurement of the tumors using external calipers. Tumor volumes (V) were calculated by caliper measurement of the width (W), length (L) and thickness (T) of tumors using the following formula: V=0.5236×(L×W×T). Animals were randomized into treatment groups so that the average tumor volumes of each group were similar at the start of dosing.
A tumor model in which the tumors have relatively high and low levels of LDH5, indicating high and low levels of hypoxia, using human tumor cell lines HCT116 and 786-O was established as set forth in the previous example.
As above, HCT116 and 786-O cells were cultured and implanted into nude mice using the methods in the previous example. Tumor growth was measured using calipers. Prior to treatment with the various agents, tumors were permitted to develop in vivo until they reached approximately 150 mm^3 in volume, which typically required 2-3 weeks following implantation. Animals were randomized into treatment groups so that the average tumor volumes of each group were similar at the start of dosing.
Tumor volume was monitored throughout the course of the study, until up to about 40 days from the date of tumor implantation. The exact number of days of the study depended on a number of factors including, for example, the number of days from implantation for the tumors to reach the desired volume.

[8] = system: mCRC pretreated with 5-FU/irinotecan; conditions: cited from earlier work
[9] = system: metastatic colorectal cancer (mCRC); conditions: cited from earlier work; remark: listed apart in the source
[10] = system: locally advanced, unresectable or metastatic pancreatic cancer; conditions: 100 mg cohort, arms: gemcitabine plus erlotinib vs gemcitabine alone, cited from earlier work
[11] = system: metastatic malignancies including renal cell carcinoma; conditions: cited from earlier work
[12] = system: advanced renal cell carcinoma; conditions: cited from earlier work
[13] = system: hepatocellular carcinoma; conditions: cited from earlier work
[14] = system: advanced renal cell carcinoma (RCC); conditions: cited from earlier work; for progression-free survival: P=0.0001
[15] = system: renal cell carcinoma (RCC); conditions: 140 subjects with elevated LDH; temsirolimus vs interferon; log-rank p<0.005; cited from earlier work
[16] = system: renal cell carcinoma cell lines; conditions: in vitro; cited from earlier work
[17] = system: treatment-naïve RCC; conditions: final analysis; arms: sunitinib vs IFN-α; cited from earlier work
[18] = system: renal cancer; conditions: arms: bevacizumab and interferon-alpha vs interferon-alpha alone; cited from earlier work
[19] = arms: temsirolimus alone vs interferon-alpha

CNC(=O)c1ccccc1Sc1ccc2c(/C=C/c3ccccn3)n[nH]c2c1 [Axitinib, N-Methyl-2-[[3-[(E)-2-pyridin-2-ylethenyl]-1H-indazol-6-yl]sulfanyl]benzamide]
response [1]: good response
survival rates versus Gemcitabine alone [2]: no evidence of improved survival rates

Cn1c(=O)n(-c2ccc(C(C)(C)C#N)cc2)c2c3cc(-c4cnc5ccccc5c4)ccc3ncc21 [BEZ235]
levels of phosphorylated RPS6 [3]: significantly reduce the levels of phosphorylated RPS6
efficacy at slowing tumor growth in HCT116 (high hypoxia) versus 786O (low hypoxia) tumors [4]: not found to work better in the tumors with a higher level of hypoxia

Clc1ccc(Nc2nnc(Cc3ccncc3)c3ccccc23)cc1 [PTK787, N-(4-chlorophenyl)-4-(pyridin-4-ylmethyl)phthalazin-1-amine]
duration of stable disease [5]: 2-6 months
patients with stable disease as the best response ([5]; six of eleven patients): 55%
PFS HR ([6]; CONFIRM 1 - High LDH, N 316, PTK787 1250 mg/day vs placebo): 0.61
PFS HR ([6]; CONFIRM 1 - Low LDH, N 852): 0.93
tumor growth versus control ([4]; 50 mg/kg 5x/week P.O., p=0.1209): reduced the growth of the tumor as compared to control
efficacy at slowing tumor growth in HCT116 (high hypoxia) versus 786O (low hypoxia) tumors [4]: more effective at slowing tumor growth in tumors with high levels of hypoxia
tumor burden versus control ([7]; 50 mg/kg 5x/week P.O., p=0.7805): no difference in tumor burden
tumor burden versus control ([7]; XL765 study (FIG. 4B), 30 mg/kg 5x/week P.O., p=0.7682): no difference in tumor burden
tumor burden versus control ([7]; erlotinib study (FIG. 5B), 1x/week P.O., p=0.8548): no difference in tumor burden
PFS HR ([8]; CONFIRM 2 - High LDH, N 250, PTK787 1250 mg/day vs placebo): 0.63
PFS HR ([8]; CONFIRM 2 - Low LDH, N 605): 0.95
PFS HR ([9]; All CONFIRM 1 & 2 High LDH Patients, N 566): 0.62
PFS HR ([9]; All CONFIRM 1 & 2 Patients, N 2023): 0.82

COc1cc(Nc2nc3ccccc3nc2NS(=O)(=O)c2ccc(NC(=O)c3ccc(C)c(OC)c3)cc2)cc(OC)c1 [XL765]
tumor growth rate versus control ([4]; XL765 30 mg/kg 5x/week P.O., p=0.009): reduced the growth rate of the tumor as compared to control
efficacy at slowing tumor growth in HCT116 (high hypoxia) versus 786O (low hypoxia) tumors [4]: more effective at slowing tumor growth in tumors with high levels of hypoxia

Nc1ccn([C@@H]2O[C@H](CO)[C@@H](O)C2(F)F)c(=O)n1 [gemcitabine]
progression free survival ([10]; p=0.006): 3.5 months
survival ([10]; p=0.028): 6.0 months

CNC(=O)c1cc(Oc2ccc(NC(=O)Nc3ccc(Cl)c(C(F)(F)F)c3)cc2)ccn1 [sorafenib]
progression free rate ([11]; at 24 weeks, p=0.0077): 50%
progression free survival HR ([11]; sorafenib vs placebo): 0.29
median progression free survival ([12]; 769 patients, sorafenib 400 mg twice daily (N=384)): 167 days
estimated improvement in overall survival vs placebo ([12]; as of 30 Nov. 2005, 367 deaths): 30%
median PFS ([12]; patients with no prior IL-2 or interferon therapy (N=137)): 172 days
median overall survival ([12]; sorafenib 400 mg twice daily, 367 deaths): 19.3 months
progression free survival HR ([12]; sorafenib vs placebo, p<0.000001): 0.44
disease control rate (DCR) ([13]; disease stabilization for at least 28 days): 43.48%
time to progression HR ([13]; independent radiological review, sorafenib vs placebo, p=0.000007): 0.58
overall survival HR ([13]; sorafenib 400 mg twice daily vs placebo, p=0.00058): 0.69
efficacy at slowing tumor growth in HCT116 (high hypoxia) versus 786O (low hypoxia) tumors [4]: not found to work better in the tumors with a higher level of hypoxia

CO[C@H]1C[C@@H]2CC[C@@H](C)[C@@](O)(O2)C(=O)C(=O)N2CCCC[C@H]2C(=O)O[C@H]([C@H](C)C[C@@H]2CC[C@@H](OC(=O)C(C)(CO)CO)[C@H](OC)C2)CC(=O)[C@H](C)/C=C(\C)[C@@H](O)[C@@H](OC)C(=O)[C@H](C)C[C@H](C)/C=C/C=C/C=C/1C [temsirolimus]
progression-free survival [14, 19]: 5.5 months
overall survival versus interferon-alpha alone ([14]; combination of temsirolimus and interferon-alpha): did not result in a significant increase in overall survival
increase in median overall survival ([14]; temsirolimus compared to interferon-alpha): 49%
efficacy at slowing tumor growth in HCT116 (high hypoxia) versus 786O (low hypoxia) tumors [4]: not found to work better in the tumors with a higher level of hypoxia
survival [15]: 6.9 months
activity of mTOR [16]: inhibited the activity of mTOR
levels of HIF-1, HIF-2 alpha and VEGF [16]: reduced levels of the hypoxia-inducible factors HIF-1 and HIF-2 alpha, and the vascular endothelial growth factor

interferon-alpha
progression-free survival [14, 19]: 3.1 months
median overall survival ([14]; arms: temsirolimus alone vs interferon-alpha, P=0.0078): 7.3 months
survival [15]: 4.2 months
median OS [17]: 94.9 weeks
patients with decreased tumor size [18]: 12%
